Experimental data from patent publication US6946447B2, “MDM2-specific antisense oligonucleotides” (Hybridon, Inc., priority 1997, dated 2005).
Read-outs that look alike come from different tables or passages of the source.

Assays:
[1] = system: LS174T cells; assay: LS174T cell growth by trypan blue viability staining; type: cell-based, human; settings: 72 hr, Lipofectin 7 μg/ml, read-out: IC50, inhibition of tumor cell growth
From the text: (§1) Chemicals and Reagents. Cell culture media and phosphate-buffered saline (PBS) were obtained from Sigma Chemical Co. (St. Louis, Mo.). Fetal bovine serum (FBS), antibodies against p53 and p21, Lipofectin, trypsin, penicillin-streptomycin, and trypan blue stain were purchased from GIBCO-BRL (Grand Island, N.Y.). The anti-human-MDM2 monoclonal antibody (Chen L. et al., Proc Natl Acad Sci USA, 95: 195-200, 1998; Chen L. et al., Mol. Med. 5: 21-34, 1999) was kindly provided by J. Chen (Moffitt Cancer Center, Tampa, Fla.). Chemotherapeutic agents adriamycin and 5-fluorouracil (5-FU) were obtained from Sigma. […] The MDM2, p53 and p21 levels in cultured cells were analyzed by using the methods described previously (earlier (Chen L. et al., Proc Natl Acad Sci USA, 95: 195-200, 1998; Chen L. et al., Mol. Med. 5: 21-34, 1999; Wang H. et al., Int J. Oncol. 15: 653-660, 1999). In brief, cell lysate containing identical amounts of total protein were fractionated by SDS-PAGE and transferred to Bio-Rad Trans-Blot nitrocellulose membranes (Bio-Rad Laboratories, Hercules, Calif., USA). The nitrocellulose membrane was then incubated with blocking buffer (PBS containing 0.1% Tween 20 and 5% non-fat milk) for 1 hr at room temperature and washed with the washing buffer (PBS containing 0. […]

[2] = system: MDM2, p53 and p21 protein levels in DLD-1 cells; assay: Western blot of MDM2, p53 and p21 in DLD-1 cells; type: cell-based, human; settings: for inhibitory effect on MDM2 expression: Lipofectin
From the text: Chemicals and Reagents. Cell culture media and phosphate-buffered saline (PBS) were obtained from Sigma Chemical Co. (St. Louis, Mo.). Fetal bovine serum (FBS), antibodies against p53 and p21, Lipofectin, trypsin, penicillin-streptomycin, and trypan blue stain were purchased from GIBCO-BRL (Grand Island, N.Y.). The anti-human-MDM2 monoclonal antibody (Chen L. et al., Proc Natl Acad Sci USA, 95: 195-200, 1998; Chen L. et al., Mol. Med. 5: 21-34, 1999) was kindly provided by J. Chen (Moffitt Cancer Center, Tampa, Fla.). Chemotherapeutic agents adriamycin and 5-fluorouracil (5-FU) were obtained from Sigma. Natural product topoisomerase I inhibitor 10-hydroxycamptothecin (HCPT) was obtained from the Midwest Co. (Beijing, China) with the purity of the drug being greater than 98% (Zhang R. et al., Cancer Chemother Pharm 41: 257-267, 1998). Cell Culture. The tumor cell lines, LS174T and DLD-1 were obtained from the American Type Culture Collection (Rockville, Md.) and cultured according to their instructions. LS 174T cells were cultured in MEM with 0.1 mM nonessential amino acids and Earle's balanced salt solution containing 10% FBS and DLD-1 cells in RPMI 1640 medium containing 10% FBS. All media included 1% penicillin/streptomycin. […] Cells were incubated with Oligos AS or ASM at various concentrations for 72 hr, in the presence of Lipofectin (7 μg/ml). […] Western Blot Analysis. The MDM2, p53 and p21 levels in cultured cells were analyzed by using the methods described previously (earlier (Chen L. et al., Proc Natl Acad Sci USA, 95: 195-200, 1998; Chen L. et al., Mol. Med. 5: 21-34, 1999; Wang H. et al., Int J. Oncol. 15: 653-660, 1999). In brief, cell lysate containing identical amounts of total protein were fractionated by SDS-PAGE and transferred to Bio-Rad Trans-Blot nitrocellulose membranes (Bio-Rad Laboratories, Hercules, Calif., USA). The nitrocellulose membrane was then incubated with blocking buffer (PBS containing 0.1% Tween 20 and 5% non-fat milk) for 1 hr at room temperature and washed with the washing buffer (PBS containing 0. 1% Tween 20) for 5 min twice. The membrane was incubated with primary (anti-MDM2, anti-p53, or anti-p21) antibody overnight at 4° C. or for 1 hr at room temperature with gentle shaking. The membrane was washed with the washing buffer for 15 min and then twice for 5 min, and then incubated with 1:5000 diluted goat anti-mouse IgG-horse radish peroxidase conjugated antibody (Bio-Rad, Hercules, Calif.) for 1 hr at room temperature. After washing as described above the protein of interest was detected by ECL reagents from Amersham (Arlington Height, Ill.). Results. LS174T Model. In vitro inhibition of MDM2 expression by Oligo AS was shown in a sequence-specific, increasing dose-dependent manner (FIG. 19). […] Control oligonucleotide, Oligo ASM had no effect on MDM2, p53 or p21 protein levels at 500 nM, the highest concentration tested in the study.
Following in vitro combination treatment of Oligos and chemotherapeutic agents HCPT, adriamycin, and 5-FU, the protein levels of MDM2, p53 and p21 were determined in DLD-1 cells. Cells were incubated with 200 nM Oligo in the presence of Lipofectin for 24 hr, followed by addition of various concentrations of chemotherapeutic agents and incubation for an additional 24 hr.

[3] = system: DLD-1 cells; assay: DLD-1 cell growth by trypan blue viability staining; type: cell-based, human; settings: 72-hr treatment, Lipofectin, read-out: IC50, inhibition of tumor cell growth
From the text: as §1

[4] = system: human colon cancer DLD-1 xenografts; assay: Tumor growth in nude mice bearing DLD-1 xenografts; type: in vivo
[5] = system: SJSA xenografts; assay: Tumor growth in nude mice bearing SJSA xenografts; type: in vivo; settings: SJSA xenografts (average 150 mg), ip, 5 doses/week
Protocol: 51:173-182, 1996). […] The control group received physiological saline only.
Tumor growth was monitored using the methods previously reported (74,75). Tumor weight (g) was calculated by the formula, ½·a·b^2, where “a” is the long diameter (cm) and “b” is the short diameter (cm) of the tumor. At the end of the experiment, tumors were removed, weighed, and then fixed for pathology evaluation.

[6] = mice bearing LS174T xenografts
[7] = mice bearing DLD-1 xenografts
[8] = system: human colon cancer LS174T xenografts; assay: Tumor growth in nude mice bearing LS174T xenografts
[9] = system: JAR xenografts; assay: Tumor regression and survival of nude mice bearing large JAR xenografts, intratumoral injection; settings: JAR xenografts (average 2,000 mg)
Protocol: Administration was by direct injection into the tupors at the designated daily dose, 5 doses/week. Anti-MDM2 oligonucleotide: AS5-2H (5 mg/kg/day, 5 injections); anti-MDM2 oligonucleotide (5 mg/kg)+HCPT (3 mg/kg); control (saline); HCPT: 3 mg/kg/day.
The tumor cell lines, SJSA and JAR, were cultured under the same conditions as in in vitro studies (Chen et al., PNAS 1998, supra). Human cancer xenograft models were established using the methods reported previously (Cai et al., Intl. J. Oncol. 10:953-960, 1997; and Zhang et al., Intl. J. Oncol. 10:1147-1156, 1997). Female nude mice (five week old) were used in the study. Cultured SJSA and JAR cells were harvested from the monolayer cultures, washed twice with DMEMF-12 HAM medium, resuspended in DMEM, and injected s.c. (20×10^6 cells, total volume 0.2 ml) into the left inguinal area of the mice. The animals were monitored by general clinical observation, body weight, and tumor growth. […] Animals with JAR cells were treated when the tumor size reached 2,000 mg. The animals bearing human cancer carcinoma xenografts were randomly divided into treatment groups and a control group (6-10 mice/group). Oligonucleotides dissolved in physiological saline (0.9% NaCl) were administered by ip injection at various daily doses, 5 consecutive days per week. The control group received physiological saline only. […]

[10] = day 3, oligo 20, HCPT 3, 5-FU 10 mg/kg/day
[11] = day 6, oligo 20, HCPT 3, 5-FU 10 mg/kg/day
[12] = day 9, oligo 20, HCPT 3, 5-FU 10 mg/kg/day
[13] = day 12, oligo 20, HCPT 3, 5-FU 10 mg/kg/day
[14] = day 15, oligo 20, HCPT 3, 5-FU 10 mg/kg/day

Substance: Oligo AS: 20-mer mixed-backbone phosphorothioate oligonucleotide with 2′-O-methyl ends, 5′UGACACCTGTTCTCACUCAC-3′; SEQ ID NO:47 (mixed phosphorothioate backbone with 2'-O-methyl ends, pattern not given here)
- IC50 [1]: 323 nM
- protein levels of the mutant p53 [2]: No significant changes
- MDM2, p53 and p21 protein levels, oligo pre-treatment then 5-FU ([2]; 200 nM Oligo 24 hr, then 5-FU 24 hr): MDM2 expression was inhibited, and p21 slightly induced
- MDM2 and p21 protein levels, oligo pre-treatment then HCPT ([2]; 200 nM Oligo 24 hr, then HCPT 24 hr): MDM2 expression was inhibited, resulting in significant elevated p21 levels
- MDM2 and p21 protein levels, oligo pre-treatment then adriamycin ([2]; 200 nM Oligo 24 hr, then adriamycin 24 hr): MDM2 expression was inhibited, resulting in significant elevated p21 levels
- inhibitory effect on MDM2 expression ([2]; 200 nM, 24 hr): > 95%
- p21 levels ([2]; 100 nm or higher): elevated
- inhibitory effect on MDM2 expression ([2]; 500 and 1000 nM): approximately 80%
- IC50 [3]: 140 nM
- xenograft pathology (tumor histology) [4]: histologically similar to control tumors except for modest increases in connective tissue with necrotic changes in tumor tissues
- effect on in vivo tumor growth ([4]; 1 mg/kg/day): minimal effects
- effect on in vivo tumor growth ([4]; daily ip doses 1, 10, 20 mg/kg): dose-dependent response
- Ratio (%) of % T:C with oligo to % T:C without oligo ([2]/[1] or [3]/[1]) ([4]; day 3): 77%
- Growth ratio % T:C [4, 10]: 77.3%
- Ratio (%) of % T:C with oligo to % T:C without oligo ([2]/[1] or [3]/[1]) ([4]; day 6): 72%
- Growth ratio % T:C [4, 11]: 72.0%
- Ratio (%) of % T:C with oligo to % T:C without oligo ([2]/[1] or [3]/[1]) ([4]; day 9): 59%
- Growth ratio % T:C [4, 12]: 59.2%
- Ratio (%) of % T:C with oligo to % T:C without oligo ([2]/[1] or [3]/[1]) ([4]; day 12): 41%
- Growth ratio % T:C [4, 13]: 41.2%
- Ratio (%) of % T:C with oligo to % T:C without oligo ([2]/[1] or [3]/[1]) ([4]; day 15): 44%
- Growth ratio % T:C [4, 14]: 44.4%
- Ratio (%) of % T:C with oligo to % T:C without oligo ([2]/[1] or [3]/[1]) ([4]; day 18): 47%
- Growth ratio % T:C ([4]; day 18, oligo 20, HCPT 3, 5-FU 10 mg/kg/day): 46.7%
- Ratio (%) of % T:C with oligo to % T:C without oligo ([2]/[1] or [3]/[1]) ([4]; day 21): 37%
- Growth ratio % T:C ([4]; day 21 (end of experiment), oligo 20, HCPT 3, 5-FU 10 mg/kg/day): 36.8%
- effect on tumor growth [5]: dose-dependent effect
- Survival Rates of Animals ([6]; day 3): 100%
- Survival Rates of Animals ([6]; day 6): 100%
- Survival Rates of Animals ([6]; day 9): 100%
- Survival Rates of Animals ([6]; day 12): 100%
- Survival Rates of Animals ([6]; day 15): 100%
- Survival Rates of Animals ([6]; day 18): 100%
- Survival Rates of Animals ([7]; day 3): 100%
- Survival Rates of Animals ([7]; day 6): 100%
- Survival Rates of Animals ([7]; day 9): 100%
- Survival Rates of Animals ([7]; day 12): 100%
- Survival Rates of Animals ([7]; day 15): 100%
- Survival Rates of Animals ([7]; day 18): 100%
- Survival Rates of Animals ([7]; day 21): 100%
- xenograft pathology (tumor histology) [8]: patches of collagenous connective tissues replacing tumor and necropurulent, ulcerative changes
- effect on in vivo tumor growth ([8]; daily ip dose 20 mg/kg): significant inhibitory effect
- Ratio (%) of % T:C with oligo to % T:C without oligo ([2]/[1] or [3]/[1]) ([8]; day 3): 51%
- Growth ratio % T:C (mean tumor mass of treated group vs saline control) [8, 10]: 50.9%
- Ratio (%) of % T:C with oligo to % T:C without oligo ([2]/[1] or [3]/[1]) ([8]; day 6): 44%
- Growth ratio % T:C (mean tumor mass of treated group vs saline control) [8, 11]: 44.1%
- Ratio (%) of % T:C with oligo to % T:C without oligo ([2]/[1] or [3]/[1]) ([8]; day 9): 30%
- Growth ratio % T:C (mean tumor mass of treated group vs saline control) [8, 12]: 29.9%
- Ratio (%) of % T:C with oligo to % T:C without oligo ([2]/[1] or [3]/[1]) ([8]; day 12): 34%
- Growth ratio % T:C (mean tumor mass of treated group vs saline control) [8, 13]: 34.3%
- Ratio (%) of % T:C with oligo to % T:C without oligo ([2]/[1] or [3]/[1]) ([8]; day 15): 45%
- Growth ratio % T:C (mean tumor mass of treated group vs saline control) [8, 14]: 45.2%
- Ratio (%) of % T:C with oligo to % T:C without oligo ([2]/[1] or [3]/[1]) ([8]; day 18): 37%
- Growth ratio % T:C (mean tumor mass of treated group vs saline control) ([8]; day 18 (end of experiment), oligo 20, HCPT 3, 5-FU 10 mg/kg/day): 37.3%
- tumor regression ([9]; direct injection): tumor regression
- animals surviving up to 4 weeks ([9]; direct injection into tumors, 5 mg/kg/day): 20%
